# Test results taken from patent US20230110128A1, “USE OF ANTIBODY DRUG CONJUGATES COMPRISING TUBULIN DISRUPTING AGENTS TO TREAT SOLID TUMOR” (Seagen Inc., priority 2018, published 2023).
# Non-standard residues stand in square brackets, D forms with d. Residues, ends and D or L forms follow the SMILES beside them. *: point of attachment. Dolaproine = CO[C@@H]([C@@H]1CCCN1)[C@@H](C)C(=O)O; Dil = CC[C@H](C)[C@H](NC)[C@@H](CC(=O)O)OC; X1 = C[C@@H](N*)[C@@H](O)c1ccccc1; NMeV = CN[C@H](C(=O)O)C(C)C
# Columns and labels:
# Assay type in all cases: cell-based
# MCF7 breast cancer cells = experiment: Western blot analysis of ER stress response in MCF7 cells; conditions: 16 hours
# Experimental: MCF7 breast cancer cells were treated with 100 nM MMAE for 16 hours and harvested RIPA buffer for western blot analysis.
# MCF7 cells were treated with MMAE or an MMAE-containing ADC (SGN-LIV1A) for 16 hours and harvested in […] for western bot analysis. […] Induction of ICD is also characterized by the secretion of ATP and HMGB1. Extracellular ATP serves as a strong chemotactic signal, promoting immune cell migration to the tumor site. Upon arrival, extracellular HMGB1 signals through various pro-inflammatory receptors (TLR2, TLR4, RAGE) to activate antigen-presenting cells, thereby promoting immune activity within the tumor.
# MCF7 cells = experiment: ATP secretion from MCF7 cells
# [1] = tested on: MiaPaca-CHOP-luciferase cells; experiment: CHOP-driven luciferase reporter assay of severe ER stress; conditions: after 16 hours
# Experimental: Severe ER stress leads to upregulation of CHOP, and initiates mitochondrial apoptosis. MiaPaca2 pancreatic tumor cells were engineered to express a CHOP-driven luciferase reporter system (purchased from Signosis, Inc.) that allows for quantifiable monitoring of severe ER stress. MiaPaca-CHOP-luciferase cells were treated with MMAE, vincristine, and Paclitaxel, and assayed for luciferase expression after 16 hours.
# MiaPaca2 cells = experiment: ATP secretion from MiaPaca2 cells; conditions: supernatant after 16 hours
# Experimental: MiaPaca2 cells were treated with MMAE, Vincristine, or Paclitaxel. Supernatant was collected after 16 hours of treatment, and analyzed for ATP secretion.
# [2] = tested on: A2058, SK-MEL-5, SK-MEL-28, Calu-1, HT-1080, SK-MES-1 and BXPC3 cells; experiment: ATP secretion in a panel of solid tumor cell lines; conditions: 7 cell lines, supernatant after 17 hours
# Experimental: (§1) Skin tumor lines A2058, SK-MEL-5 and SK-MEL-28, Calu-1 (lung), HT-1080 (fibrosarcoma), SK-MES-1 (lung), and BXPC3 (pancreas) cells were treated with MMAE, vincristine, and Paclitaxel. Supernatant was collected after 17 hours of treatment, and analyzed for ATP secretion.
# [3] = tested on: A2058, SK-MEL-5, SK-MEL-28 (skin) cell lines; experiment: ATP secretion in skin cell lines; conditions: A2058, SK-MEL-5, SK-MEL-28, after 17 hours
# Experimental: as §1
# [4] = tested on: A2058, SK-MEL-5, and SK-MEL-28 (skin) cells co-cultured with macrophages; experiment: Macrophage antigen presentation after co-culture with treated skin tumor cells; conditions: tumor cells treated 24 hours; macrophages harvested 4 days after co-culture; normalized to untreated
# Experimental: Macrophages were enriched from PBMCs from 2 healthy donors by adhering PBMCs to cell culture-grade plastic. Non-adherent cells were removed 24 hours later, leaving a population of cells enriched for macrophages.
# A2058, SK-MEL-5, and SK-MEL-28 (skin) cells were treated with MMAE, vincristine, and Paclitaxel for 24 hours. Cells were washed and harvested, and subsequently co-cultured with the enriched macrophages prepared above. Macrophages were harvested 4 days after co-culture and assayed for immune activation by flow cytometry. The level of antigen-presentation (as measured by frequency of MHCII-expressing cells) was quantified and normalized to macrophages that were co-cultured with untreated tumor cells.
# BxPC-3 cells = experiment: ATP secretion from BxPC-3 cells; conditions: 17 hours
# [5] = tested on: Calu-1, HT1080 and SK-MES-1 cells co-cultured with macrophages; experiment: Macrophage costimulation/antigen presentation after co-culture with treated Calu-1, HT1080 and SK-MES-1 cells; conditions: normalized to untreated
# Experimental: Additional cell lines [Calu-1 (lung), HT1080 (fibrosarcoma) and SK-MES-1 […]] were tested for levels of antigen presentation after co culture with macrophages as above. Levels of costimulation (as measured by frequency of CD86-expressing macrophages, Calu-1) or antigen-presentation (as measured by frequency of MHCII-expressing macrophages, HT1080 and SK-MES-1) were quantified and normalized to macrophages that were co-cultured with untreated tumor cells. […] Calu-1, HT-1080, and SK-MES-1 cells were treated with an MMAE-containing ADC (anti-p97-MMAE), vincristine, or paclitaxel for 24 hours and analyzed for HMGB1 release by ELISA.
# [6] = tested on: Hep3b, Huh7, and JHH7 cells co-cultured with macrophages; experiment: Macrophage costimulation/antigen presentation after co-culture with treated liver tumor cells; conditions: macrophages harvested 4 days after co-culture; normalized to Paclitaxel-treated tumor cells
# Experimental: (§2) Liver tumor lines Hep3b, Huh7, and JHH7 cells were treated with MMAE, Tubulysin M, vincristine, and Paclitaxel for 24 hours and analyzed for ATP secretion. […] Cells were washed and harvested, and subsequently co-cultured with enriched macrophages prepared as above. Macrophages were harvested 4 days after co-culture and assayed for immune activation by flow cytometry. Levels of costimulation (as measured by CD86 expression, JHH7) and antigen-presentation (as measured by frequency of MHCII-expressing cells, Hep3b, Huh7, and JHH7) were quantified and normalized to macrophages that were co-cultured with […]. […] Supernatant from the co-culture of macrophages and dying liver tumor cells was harvested 24 hours later and assayed for levels of cytokine and chemokine production by ELISA and normalized to macrophages that were co-cultured with untreated tumor cells.
# [7] = tested on: Hep3b, Huh7, and JHH7 cells co-cultured with macrophages; experiment: Cytokine and chemokine production in macrophage co-culture with treated liver tumor cells; conditions: Huh7, JHH7 co-culture supernatant 24 hours, ELISA, normalized to untreated
# Experimental: as §2
# [8] = tested on: U-266 multiple myeloma cells; experiment: Western blot analysis of ER stress in U-266 cells; conditions: MMAE 492 nM, SGN-CD48A 10 ng/ml, 24 and 48 hours
# Experimental: U-266 multiple myeloma cells were treated with free MMAE (492 nM), an MMAE-containing ADC (SGN-CD48A, 10 ng/ml), and a non-binding MMAE-ADO (10 ng/ml) for 24 and 48 hours. Cells were harvested at each time point and whole cell lysates were prepared. Lysates for each sample were run on an SDS-Page and transferred onto a nitrocellulose membrane. Western blot analysis was performed using phospho-JNK Thr183/Tyr185 (pJNK), PARR, ATF4, […], phospho-IRE-1 Ser274 (pIRE-1). β-actin serves as a loading control. […] Importantly, the induction of ER stress by MMAE in U-266 cells was sufficient to elicit markers of ICD.
smiles,measurement,setting,value
"CC[C@H](C)[C@@H]([C@@H](CC(=O)N1CCC[C@H]1[C@H](OC)[C@@H](C)C(=O)N[C@H](C)[C@@H](O)c1ccccc1)OC)N(C)C(=O)[C@@H](NC(=O)[C@@H](NC)C(C)C)C(C)C [MMAE, monomethyl auristatin E] (H-[NMeV]V[Dil][Dolaproine]-X1)","Severe ER stress (JNK signaling by phosphorylated IRE1, expression of CHOP)",MCF7 breast cancer cells; western blot,elicited by MMAE
same,"ER stress response (phosphorylation of IRE1 and eIF2a, cleavage of full-length ATF6)",MCF7 breast cancer cells; western blot (100 nM MMAE elsewhere in the source),activated all 3 pathways of the ER stress response
same,Secretion of ATP,MCF7 cells,increased secretion
same,Luciferase signal as a proxy of severe ER stress induction,[1],dose-dependent increase in luciferase signal
same,ATP secretion,MiaPaca2 cells,robust ATP secretion
same,ATP secretion (cell lines responding),[2],ATP secretion in most of the cell lines assayed (6/7)
same,ATP secretion response compared with Paclitaxel,[2],more robust response than Paclitaxel in all cell lines assayed
same,ATP secretion (skin cell lines responding),[3],potent ATP secretion from all 3
same,Antigen-presentation (frequency of MHCII-expressing cells),[4],increase in antigen-presentation in 2/3 tumor cell lines that was more robust than Paclitaxel
same,ATP secretion,BxPC-3 cells,equivalent levels of ATP secretion
same,"Immune activation (CD86-expressing macrophages, Calu-1; MHCII-expressing macrophages, HT1080 and SK-MES-1)",[5],increase in immune activation in 3/3 tumor cell lines that was more robust than treatment with Paclitaxel
same,"Immune-activation (CD86 expression, JHH7; MHCII-expressing cells, Hep3b, Huh7, JHH7)",[6],increase in immune-activation in 3/3 tumor cell lines that was more robust than Paclitaxel
same,Cytokine and chemokine production,[7],increase of the indicated cytokines and chemokines that was more robust than treatment with Paclitaxel
same,"ER stress response (ATF4 expression, phosphorylation of JNK)",[8],further increased the ER stress response
